The record followed here is patent US8048869B2, “Pharmaceutical composition for use in hormone replacement therapy” (Pantarhei Bioscience B.V., priority 2001, dated 2011).

The structures appear in SMILES notation.

One assay deals with ovariectomized rats. Kind of assay: Vaginal cornification bioassay in ovariectomized rats, 7 days, sc or po. The format is in vivo, rat. An excerpt:
Uterine weight increase in the rat is more commonly used as a measure of estrogenicity. […] In the early 1920s it was discovered that follicular fluid from the pig ovary contained a factor(s) that caused cornification/keratinization of the vaginal epithelium in the rat (Allen and Doisy, 1923, JAMA, 81, 819-821; Allen and Doisy, 1924, Am. J. Physiol., 69, 577-588). The so-called vaginal cornification response in rats subsequently provided a bioassay for testing estrogenicity. Vaginal epithelial cornification/keratinization in ovariectomized rats can be produced only by compounds considered to be true estrogens (Jones et al, 1973, Fert. Steril. 24, 284-291). […] Adult intact female CD rats were ovariectomized to induce estrogen deficiency. […] Castrate vaginal smears are indicative that complete ovariectomy was achieved. Treatment commenced following completion of the 7 days of smearing (day 0=first day of dosing). Animals were dosed, once daily for 7 consecutive days. Daily vaginal lavages continued to be obtained for 7 days after dosing was initiated in order to detect vaginal cornification, as an indication of an estrogenic response. A drop of vaginal washings was placed on a glass slide and examined by light microscopy to detect the presence or absence of cornified epithelial cells. Vaginal lavages were obtained prior to dosing on days 0-6 and prior to necropsy on day 7. […]

Assay [1] deals with OVX-rats. Description: pQCT densitometry of proximal tibiae, ovariectomized aged rat osteoporosis model. Particulars: po, 4 weeks; for Mean Total Bone Mineral Area / Mean Total Bone Mineral Content / Mean Total Bone Mineral Density / Mean Trabecular Bone Mineral Area / Mean Trabecular Bone Mineral Content / Mean Trabecular Bone Mineral Density: proximal tibiae. The class given is in vivo. Set-up: anti-resorptive activity compared with positive control EE: dose or concentration left out as unconfirmed. The protocol:
The ovariectomized aged rat was used as a model for the human disease osteoporosis. This is an established animal model, recommended by the United States Food and Drug Administration (FDA), to evaluate and assess potential agents for osteoporosis prevention and therapy. The anti-resorptive efficacy of estetrol (E4) was tested by ex vivo measuring total and trabecular bone mineral density and bone strength after 4 weeks of treatment at necropsy. 17α-ethinyl-estradiol (EE) and vehicle (1% ethanol/arachidis oil) served as controls in this bioassay.
Three months old female Sprague-Dawley rats were either sham-operated (Sham) or ovariectomized (OVX) one day prior to commencement of the dosing study. Animals were anesthetized using a ketamine/xylazine anesthetic mixture and underwent a bilateral ovariectomy or were sham-treated. A section of hair on the dorsal surface was shaved and an incision made overlying the lumbar region of the spine. The skin was separated from the underlying fascia so that a second incision could be made through the abdominal musculature approximately caudal to the kidneys. The ovaries were then exteriorized and removed and the musculature was closed with a single suture. The skin incision was closed using surgical staples.
Ten animals per treatment group were orally dosed once per day for four consecutive weeks. […] Vehicle control was daily administered to one group of OVX-animals and sham-operated rats. After treatment, anesthetized rats were subjected to cardiac puncture and asphyxiated by CO2 inhalation. Tibiae and femura were removed, cleaned of soft-tissue and fixed and stored in 70% ethanol/saline at 4° C. (tibia) or saline at 4° C. (femura) until fuirther analysis.
Ex vivo peripheral Quantitative Computed Tomography (pQCT) was performed on the excised left tibiae using a Stratec XCT-RM and associated software (Stratec Medizintechnik GmbH, Pforzheim; Germany, software version 5.40). The scans were performed at 12% of the total length from the proximal end of the tibiae. The positions were verified using scout views and one 0.5-mm slice perpendicular to the long axis of the tibial shaft was acquired from each site. The scans were analyzed using a threshold for delineation of the external boundary. The total and trabecular bone mineral content, area and density at each site were determined. Furthermore, pQCT data for mean total bone mineral density are depicted in FIG. 1.

Assay [2] deals with OVX-rats. Kind of assay: Endometrial proliferation after 4-week oral treatment (uterine weight, Ki67). As to conditions: 0.5 to […], 4 weeks (FIG. 5). The format is in vivo, rat. The source says: Endometrial proliferation was chosen as another relevant tissue-specific endpoint to determine the hormonal potency of estetrol after chronic (4-week), oral treatment in ovariectomized rats. An established 4-week animal model, also recommended for evaluation of agents for osteoporosis prevention and therapy, was used. […] 17α-ethinyl-estradiol (EE) and vehicle (1% ethanol/arachidis oil) served as additional controls in this bioassay.
Three months old female Sprague-Dawley rats were either sham-operated (Sham) or ovariectomized (OVX) one day prior to commencement of the dosing study as described in Example 2. Ten animals per treatment group were orally dosed once per day for four consecutive weeks. The dosing commenced 1 day after surgical removal of the ovaries and was administered by oral gavage using a syringe and stainless steel gavage needle at doses of 0.1 mg/kg /day EE, or either 2.5 or 0.5 mg/kg/day E4. Vehicle control was daily administered to one group of OVX-animals and sham-operated rats. After treatment, anesthetized rats were subjected to cardiac puncture and asphyxiated by CO2 inhalation. The uterine horns were isolated and weighed and then fixed in 4% formaldehyde at 4° C. […] Proliferative indices were determined by scoring positively labeled cells on Ki67 immunostained sections. Typically, for each datapoint 1000 luminal epithelial cells were evaluated.

Turning to `C[C@]12CC[C@@H]3c4ccc(O)cc4CC[C@H]3[C@@H]1[C@@H](O)[C@@H](O)[C@@H]2O` [E4, 1,3,5 (10)-estratrien-3,15α,16α,17β-tetrol], in the assay on ovariectomized rats (1.0 mg/kg/day, Day 7, 1 mg/kg/day), the “Number of Rats Exhibiting Estrogenic Response/Number of Rats Treated” value is recorded as “all rats”. In addition, in the assay on ovariectomized rats (3.0 mg/kg/day, Day 7, 3 mg/kg/day), the “Number of Rats Exhibiting Estrogenic Response/Number of Rats Treated” value is “all rats”. For the same compound, in the assay with OVX-rats [1] (0.1 mg/kg/day), the “Mean Total Bone Mineral Area” value is listed as 14.41 mm^2, the “Mean Total Bone Mineral Content” value was found to be 8.46 mg/mm, the “Mean Total Bone Mineral Density” value was found to be 588.62 mg/mL and the “Mean Trabecular Bone Mineral Area” value is given as 6.48 mm^2. Further, in the assay with OVX-rats [1] (0.1 mg/kg/day), the “Mean Trabecular Bone Mineral Content” value is 0.96 mg/mm and the “Mean Trabecular Bone Mineral Density” value was determined as 145.46 mg/mL. In the assay with OVX-rats [1] (0.5 mg/kg/day), the “Mean Total Bone Mineral Area” value turned out to be 14.80 mm^2, the “Mean Total Bone Mineral Content” value stood at 9.74 mg/mm, the “Mean Total Bone Mineral Density” value was found to be 660.57 mg/mL and the “Mean Trabecular Bone Mineral Area” value turned out to be 6.65 mm^2. Further, in the assay with OVX-rats [1] (0.5 mg/kg/day), the “Mean Trabecular Bone Mineral Content” value turned out to be 1.60 mg/mm and the “Mean Trabecular Bone Mineral Density” value turned out to be 243.31 mg/mL. In addition, the “anti-resorptive activity compared with positive control EE” value in the assay on OVX-rats [1] (highest dose) is “equivalent to the effect seen with the positive control EE”. In addition, the “percentage of Ki67-positive luminal epithelial cells, dose trend” value with OVX-rats [2] is listed as “declined with increasing doses”.
